Test systems include SK-MEL-2 melanoma; SF-295 CNS; NCI/ADR-RES ovarian; U251 CNS; CCRF-CEM leukemia; SNB-75 CNS; NCI-H23 lung; PC-3 prostate; SW-620 colon; SN12C renal; UACC-62 melanoma; NCI-H460 lung; SF-268 CNS; HCC-2998 colon; ACHN renal; K-562 leukemia; COLO 205 colon; LOX IMVI melanoma; OVCAR-3 ovarian; MOLT-4 leukemia.
Test in all cases: DTP human tumour cell line panel, 48 h

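In this assay, cells in 96-well plates receive the compound at five concentrations for 48 hours. Endpoints are linearly interpolated between the surrounding concentrations. TGI: concentration producing complete growth inhibition.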

In general, TGI refers to the concentration giving total growth inhibition. Low values mean more potent growth arrest, high ones less potent growth arrest. On to `O=[N+]([O-])C(=C(N1CCCCC1)N1CCCCC1)/C(Cl)=C(\Cl)[N+](=O)[O-]`, for which the TGI in the assay on SK-MEL-2 melanoma is 35.1 µM; with SF-295 CNS it was 46 µM; with NCI/ADR-RES ovarian, 50.7 µM; in the assay on U251 CNS it was 46 µM; in the assay with CCRF-CEM leukemia, above 31.3 µM; in the assay with SNB-75 CNS it was 32.9 µM. Besides, the TGI in the assay with NCI-H23 lung turned out to be 14 µM; in the assay on PC-3 prostate, 30 µM; with SW-620 colon, 28.7 µM; in the assay with SN12C renal, 4.8 µM; in the assay with UACC-62 melanoma, 29.2 µM; in the assay with NCI-H460 lung, 59.9 µM. In addition, the TGI in the assay with SF-268 CNS was 25.4 µM; with HCC-2998 colon, 55.6 µM; in the assay with ACHN renal it was 9.24 µM; in the assay on K-562 leukemia, above 100 µM; with COLO 205 colon, 11.5 µM; in the assay with LOX IMVI melanoma, 5.13 µM. Besides, the TGI in the assay on OVCAR-3 ovarian amounted to 10.7 µM.

On to `CC(C)[Si](OC1=C(c2ccccc2)C(NC(=O)/C=C/c2ccc([N+](=O)[O-])cc2)CCC1)(C(C)C)C(C)C` (stereo not drawn), for which the TGI in the assay with SK-MEL-2 melanoma, with SF-295 CNS, with NCI/ADR-RES ovarian, in the assay with U251 CNS, with CCRF-CEM leukemia and in the assay with MOLT-4 leukemia was above 100 µM each time. Moreover, the TGI in the assay on SNB-75 CNS, in the assay on NCI-H23 lung, with PC-3 prostate, in the assay with SW-620 colon, with UACC-62 melanoma and in the assay on NCI-H460 lung was above 100 µM throughout. Also, the TGI in the assay on SF-268 CNS, with HCC-2998 colon, in the assay with K-562 leukemia, with COLO 205 colon, in the assay with LOX IMVI melanoma and in the assay with OVCAR-3 ovarian was above 100 µM each time.

As for `Clc1ccc(C2=C(c3ccccc3)C(c3ccc(Cl)cc3)N3C(=N[C@H]4CCCC[C@@H]43)N2)cc1` (stereo partly drawn), the TGI was found to be 29.9 µM in the assay with SK-MEL-2 melanoma; 23.8 µM with SF-295 CNS; 28.1 µM in the assay on NCI/ADR-RES ovarian; 23.3 µM in the assay on U251 CNS; 26 µM with CCRF-CEM leukemia; 22.7 µM with MOLT-4 leukemia. Further, the TGI in the assay on SNB-75 CNS was found to be 30 µM; in the assay on NCI-H23 lung it was 28 µM; in the assay with PC-3 prostate, 21.8 µM; in the assay on SW-620 colon, 20.6 µM; in the assay on UACC-62 melanoma, 31.4 µM; in the assay on NCI-H460 lung, 11.1 µM. For the same compound, the TGI with SF-268 CNS is 44.8 µM; in the assay with HCC-2998 colon, 10.4 µM; with ACHN renal, 23.2 µM; with K-562 leukemia, 7.98 µM; with COLO 205 colon it was 19.4 µM; in the assay with LOX IMVI melanoma, 25.4 µM. Also, in the assay on OVCAR-3 ovarian, the TGI turned out to be 26.7 µM.

As for `CC1OC(OC2C(CO)OC(O[C@H]3CC[C@@]4(C)C(=CC[C@H]5[C@@H]6C[C@@H]7O[C@](O)(CC[C@H](C)COC8OC(CO)C(O)C(O)C8O)[C@@H](C)[C@@H]7[C@@]6(C)CC[C@@H]54)C3)C(OC3OC(C)C(O)C(O)C3O)C2O)C(O)C(O)C1O` (stereo partly drawn), the TGI in the assay on SK-MEL-2 melanoma was 20 µM; with SF-295 CNS, 23.1 µM; in the assay with NCI/ADR-RES ovarian, 18.4 µM; in the assay on U251 CNS it was above 33 µM; in the assay with CCRF-CEM leukemia, 4.47 µM; in the assay with SNB-75 CNS, 4.78 µM. For the same compound, the TGI in the assay on NCI-H23 lung is 17.4 µM; in the assay with PC-3 prostate it was 15.9 µM; with SW-620 colon it was 4.02 µM; in the assay on SN12C renal, above 26 µM; in the assay on UACC-62 melanoma it was above 50.4 µM; in the assay on NCI-H460 lung, above 45.7 µM. For the same compound, the TGI was 11.5 µM in the assay with SF-268 CNS; above 37.9 µM with HCC-2998 colon; 40.3 µM in the assay with ACHN renal; above 33.4 µM in the assay with K-562 leukemia; above 35.5 µM with COLO 205 colon; 4.9 µM in the assay with LOX IMVI melanoma. In the assay with OVCAR-3 ovarian, this compound gave a TGI above 29.3 µM.

On to `CC(C)(C)OC(=O)CC(NC(=O)OC(C)(C)C)C(=O)NC(C(=O)O)C(O)c1ccccc1` (stereo not drawn), for which the TGI in the assay with SK-MEL-2 melanoma, in the assay with SF-295 CNS, in the assay with NCI/ADR-RES ovarian, in the assay on U251 CNS, in the assay on CCRF-CEM leukemia and with MOLT-4 leukemia was above 100 µM throughout. The TGI in the assay with SNB-75 CNS, in the assay on NCI-H23 lung, in the assay on PC-3 prostate, with SW-620 colon, with UACC-62 melanoma and in the assay with NCI-H460 lung was above 100 µM throughout. The TGI with SF-268 CNS, in the assay on HCC-2998 colon, with ACHN renal, with K-562 leukemia, in the assay with COLO 205 colon and in the assay with LOX IMVI melanoma was above 100 µM each time. Further, the TGI in the assay with OVCAR-3 ovarian was above 100 µM.

In the case of `CN(C)C1(N(C)C)Oc2c(c(=O)n(C)c(=O)n2C)C(c2ccccc2Br)C1(F)F` (stereo not drawn), the TGI with SK-MEL-2 melanoma, with SF-295 CNS, in the assay with NCI/ADR-RES ovarian, in the assay on U251 CNS, with CCRF-CEM leukemia and in the assay on MOLT-4 leukemia was above 100 µM in each case. The concentration for total growth inhibition (TGI) with SNB-75 CNS, in the assay with NCI-H23 lung, in the assay with PC-3 prostate, in the assay with SW-620 colon, with UACC-62 melanoma and in the assay with NCI-H460 lung was above 100 µM each time. In addition, the TGI in the assay with SF-268 CNS, in the assay on HCC-2998 colon, with ACHN renal, with K-562 leukemia, with COLO 205 colon and in the assay with LOX IMVI melanoma was above 100 µM throughout. Further, in the assay on OVCAR-3 ovarian, the TGI is above 100 µM.

In the case of `O=Nc1sc(=N\O)/c(=N/O)sc1NO`, the TGI in the assay on SK-MEL-2 melanoma, in the assay with SF-295 CNS, in the assay on NCI/ADR-RES ovarian, in the assay on U251 CNS, in the assay on CCRF-CEM leukemia and in the assay with MOLT-4 leukemia was above 100 µM in each case. Besides, the TGI in the assay with SNB-75 CNS, in the assay with NCI-H23 lung, in the assay with PC-3 prostate, with SW-620 colon, in the assay with SN12C renal and in the assay on UACC-62 melanoma was above 100 µM throughout. Also, the TGI in the assay with NCI-H460 lung, with HCC-2998 colon, in the assay on ACHN renal, in the assay on K-562 leukemia, with COLO 205 colon and with LOX IMVI melanoma was above 100 µM each time. In the assay with OVCAR-3 ovarian, this compound had a TGI above 100 µM.

Consider `NC(=NCCN1CCCCCCC1)NO`, for which the TGI in the assay with SK-MEL-2 melanoma, with SF-295 CNS, with NCI/ADR-RES ovarian, with CCRF-CEM leukemia, in the assay with MOLT-4 leukemia and in the assay with SNB-75 CNS was above 100 µM throughout. In addition, the TGI in the assay on NCI-H23 lung, in the assay on PC-3 prostate, with SW-620 colon, in the assay on SN12C renal, with UACC-62 melanoma and in the assay with NCI-H460 lung was above 100 µM throughout. Besides, the TGI in the assay on SF-268 CNS was above 100 µM; in the assay on HCC-2998 colon, above 100 µM; with ACHN renal it was 43.4 µM; in the assay on K-562 leukemia, above 100 µM; in the assay with COLO 205 colon, above 100 µM; in the assay with LOX IMVI melanoma, above 100 µM. The TGI in the assay with OVCAR-3 ovarian is above 100 µM.

For the compound `C=C(C)[C@H]1C[C@@H]2O[C@@](O)(/C(C)=C\C(=O)/C=C(/C)C[C@H]3OC(=O)[C@@]24O[C@H]34)[C@@H]1O`, the TGI with SK-MEL-2 melanoma, in the assay with SF-295 CNS, with NCI/ADR-RES ovarian, with U251 CNS, in the assay on CCRF-CEM leukemia and in the assay with MOLT-4 leukemia was above 100 µM in each case. Besides, the TGI with SNB-75 CNS, in the assay on PC-3 prostate, in the assay with SW-620 colon, with SN12C renal, in the assay on UACC-62 melanoma and in the assay with NCI-H460 lung was above 100 µM in each case. In addition, the TGI in the assay on SF-268 CNS, in the assay with HCC-2998 colon, in the assay on ACHN renal, in the assay on K-562 leukemia, in the assay with COLO 205 colon and in the assay on LOX IMVI melanoma was above 100 µM in each case. In addition, the TGI in the assay with OVCAR-3 ovarian was above 100 µM.

As to `O=C1C2=Cc3ccccc3OC2(O)Oc2ccc(O)cc21` (stereo not drawn), the TGI in the assay with SK-MEL-2 melanoma was above 100 µM; in the assay on SF-295 CNS it was above 100 µM; in the assay on NCI/ADR-RES ovarian it was above 100 µM; with U251 CNS, above 100 µM; in the assay with CCRF-CEM leukemia it was 44.4 µM; in the assay on MOLT-4 leukemia, above 100 µM. Also, the total growth inhibition concentration (TGI) with SNB-75 CNS, in the assay with NCI-H23 lung, with PC-3 prostate, with SW-620 colon, in the assay on SN12C renal and with UACC-62 melanoma was above 100 µM each time. The TGI is above 100 µM with SF-268 CNS; above 100 µM with HCC-2998 colon; 29.6 µM in the assay on ACHN renal; 74.1 µM with K-562 leukemia; above 100 µM in the assay on COLO 205 colon; above 100 µM with LOX IMVI melanoma. This compound registered a TGI in the assay with OVCAR-3 ovarian above 100 µM.

On to `CCOC(=O)c1c(-c2ccccc2)nc2c(OC)nccn12`, for which the TGI with SK-MEL-2 melanoma, in the assay on SF-295 CNS, in the assay with NCI/ADR-RES ovarian, with U251 CNS, in the assay with CCRF-CEM leukemia and with MOLT-4 leukemia was above 100 µM throughout. Further, the TGI with SNB-75 CNS, with NCI-H23 lung, in the assay on PC-3 prostate, in the assay on SW-620 colon, with SN12C renal and with UACC-62 melanoma was above 100 µM throughout. For the same compound, the TGI in the assay on NCI-H460 lung, in the assay with SF-268 CNS, in the assay on HCC-2998 colon, in the assay on K-562 leukemia, with COLO 205 colon and in the assay with LOX IMVI melanoma was above 100 µM in each case. Also, the TGI with OVCAR-3 ovarian was above 100 µM.

Values taken from PubChem BioAssay (NCI).
